This is an account of results in ChEMBL document CHEMBL3407419, “Multiple binding modes of isothiocyanates that inhibit macrophage migration inhibitory factor” (Eur J Med Chem, 2015).

In general, IC50 refers to the concentration that inhibits the measured activity by half.

Assay [1] concerns the target T1, Macrophage migration inhibitory factor (Homo sapiens, UniProt P14174).
T1 sequence (P14174 whole entry): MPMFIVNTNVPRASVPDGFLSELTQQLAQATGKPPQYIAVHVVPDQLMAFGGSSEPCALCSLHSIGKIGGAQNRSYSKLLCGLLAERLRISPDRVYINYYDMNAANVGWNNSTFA
The assay can be described thus: Inhibition of macrophage migration inhibitory factor tautomerase activity in human Jurkat T cells using L-dopachrome methyl ester as substrate incubated for 30 mins prior to substrate addition measured for 2 mins by spectrophotometric analysis. In kind it is cell-based.

Assay [2] concerns the target T1, Macrophage migration inhibitory factor. The experiment in a line: Inhibition of human recombinant macrophage migration inhibitory factor tautomerase activity expressed in Escherichia coli DH5alpha using L-dopachrome methyl ester as substrate incubated for 5 mins prior to substrate addition measured for 2 mins by spectrophotometric analysis.
The target is the same in assay [3]. The assay can be described thus: Inhibition of human recombinant macrophage migration inhibitory factor tautomerase activity expressed in Escherichia coli DH5alpha using L-dopachrome methyl ester as substrate incubated for 5 mins prior to substrate addition measured 24 months post determination of initial value by spectrophotometric analysis.
The target is the same in assay [4]. The experiment in a line: Inhibition of macrophage migration inhibitory factor tautomerase activity in human Jurkat T cells using L-dopachrome methyl ester as substrate incubated for 30 mins prior to substrate addition measured 24 months post determination of initial value by spectrophotometric analysis. The class given is cell-based.

As to `C[C@@H](N=C=S)c1ccccc1`, in assay [1], inhibition was half-maximal at 1.1 µM (IC50). As for `Oc1ccc(CCN=C=S)cc1`, the IC50 in assay [1] was 1.2 µM; in assay [2] it was 3.6 µM. For `Oc1cccc(CCN=C=S)c1`, the IC50 in assay [1] is 7.8 µM; in assay [2] it was 62 µM. Turning to `Oc1ccc(CCN=C=S)cc1O`, the results for the IC50 in assay [1] and in assay [2] were 4 µM and 29 µM, respectively. In the case of `FC(F)(F)c1ccc(CCN=C=S)cc1`, the IC50 in assay [1] was 7.1 µM; in assay [2] it was 40 µM. Regarding `FC(F)(F)c1cccc(CCN=C=S)c1`, half-maximal inhibition in assay [1] (IC50) required 10.4 µM. As for `S=C=NCCc1ccc(Cl)cc1`, the IC50 was 1.6 µM in assay [1] and 1.1 µM in assay [2]. As to `CC(CN=C=S)c1ccc(O)cc1` (stereo unspecified), the values for the IC50 in assay [1] and in assay [2] were 4.8 µM and 28 µM, respectively. Turning to `Oc1ccc(C(N=C=S)c2ccc(O)cc2)cc1`, in assay [1], the IC50 was over 100 µM.

With `Fc1ccc(CN=C=S)cc1`, the concentration for half-maximal inhibition (IC50) in assay [3] was 31 µM; in assay [4] it was 9.6 µM; in assay [1], 0.54 µM.

`Fc1cccc(CN=C=S)c1`: the IC50 in assay [3] was determined as 54 µM; in assay [4], 11 µM; in assay [1], 1.5 µM.

In assay [1], `FC(F)(F)c1cccc(CN=C=S)c1` came in with an IC50 of 5.9 µM. Take `NS(=O)(=O)c1ccc(CN=C=S)cc1`: the IC50 in assay [1] is 0.5 µM; in assay [2], 0.75 µM. Take `S=C=NCc1ccc2c(c1)OCO2`: the IC50 in assay [1] worked out at 5 µM; in assay [2], 2.9 µM. With `CCC(N=C=S)c1ccccc1` (stereo unspecified), the IC50 in assay [1] is 21 µM. Take `CCC(N=C=S)c1ccc(O)cc1` (stereo unspecified): in assay [1], the IC50 is over 100 µM. In assay [1], `CCC(N=C=S)c1ccc(OC)cc1` (stereo unspecified) returned an IC50 of 1.2 µM. `S=C=NC(c1ccccc1)c1ccccc1`: in assay [1], the IC50 is over 100 µM. Still for that read-out and setting: to `COc1ccccc1OCCN=C=S` belongs 1.8 µM.

Consider `S=C=NCCCc1ccccc1`, for which, in assay [1], half-maximal inhibition (IC50) was put at 1.4 µM.

In turn, `OCCCCCCN=C=S` returned an IC50 in assay [1] of 5.1 µM. As for `COc1ccc(CN=C=S)cc1`, the concentration for half-maximal inhibition (IC50) was 3.9 µM in assay [1] and 0.7 µM in assay [2]. On to `CC(N=C=S)c1ccccc1` (stereo unspecified) [1-PHENYLETHYL ISOTHIOCYANATE], for which the half-maximal inhibitory concentration (IC50) in assay [1] was 2.8 µM; in assay [2] it was 1 µM. `C=CCN=C=S` [ALLYL ISOTHIOCYANATE]: the IC50 amounted to 0.25 µM in assay [1] and 1.1 µM in assay [2].

For the molecule `N#CSCc1ccccc1` [BENZYL THIOCYANATE], the IC50 in assay [1] was over 100 µM. On to `O=C=NCCc1ccccc1` [PHENETHYL ISOCYANATE], for which, in assay [1], the IC50 is over 100 µM. With `S=C=NCCCCc1ccccc1` [PHENYLBUTYL ISOTHIOCYANATE], in assay [1], the half-inhibitory concentration (IC50) stood at 1.9 µM. Consider `S=C=NCCCCCCc1ccccc1` [PHENYLHEXYL ISOTHIOCYANATE], for which, in assay [1], the concentration for half-maximal inhibition (IC50) stood at 4.2 µM. `S=C=Nc1ccccc1` [PHENYLISOTHIOCYANATE] displayed an IC50 in assay [1] of 11 µM.

As to `C[S+]([O-])CCCCN=C=S` (stereo unspecified) [SULFORAPHANE], the half-inhibitory concentration (IC50) is 2.2 µM in assay [1] and 11 µM in assay [2].
